Test results taken from PMC5700161, “Structure of human immunoproteasome with a reversible and noncompetitive inhibitor that selectively inhibits activated lymphocytes” (Nature Communications, 2017).

Assays:
CD19+CD38+CD27+ ASCs = experiment: Survival and apoptosis of differentiated antibody-secreting cells (ASCs) from PBMC, Annexin V/7-AAD; type: cell-based, human; details: added for 12 hours on Day 5
Description: (§1) The immunoproteasome plays important roles in T cell differentiation and proliferation and dendritic cell activation and maturation[14],[20],[24]. However, its role in B cell differentiation is not well understood. […] Differentiated ASCs were then exposed to PKS21221 at indicated concentrations and cell survival was determined with Annexin V and 7-aminoactinomycin D (7-AAD) at three-time points (12-h, 24-h, and 48-h after treatment). […] In addition, the cytotoxicity of PKS21221 to different cell populations in PBMC was examined and compared to the cytotoxicity of bortezomib. PBMCs were incubated with PKS21221 or bortezomib, and the viability was assessed in T cells (CD3^+), B cells (CD19^+), monocytes (CD14^+) and dendritic cells (CD3^−CD19^−CD14^−CD16^−CD11c^+HLA-DR^+), respectively (Supplementary Fig. 13b–e).
PBMCs were cultured with or without IL-2/R848 for 5 days, followed by 12-h incubation with PKS21221 at different concentrations. a Representative flow cytometry plots of cells treated with IL-2 and R848 in the presence and absence of PKS21221. […] Annexin V^+7-AAD^− cells were referred as “Early apoptosis” population, and Annexin V^+7-AAD^+ cells were referred as “Dead” population. d Percentage of early apoptotic ASCs (left) and dead ASCs (right), after 12-h incubation with PKS21221.
Human peripheral blood samples were obtained from five different healthy volunteers (BWH Specimen Bank). Peripheral blood mononuclear cells (PBMCs) were isolated by density gradient centrifugation using Lymphoprep (StemCell Technologies). PBMCs were cultured at 1.5 × 10^6 cells per mL in RPMI 1640 media (Lonza), supplemented with 10% human serum (GemCell) (10% HS-RPMI), recombinant human IL-2 10 ng per mL (or 100 U per ml, BioLegend) and R848 1 µg per mL (Cayman Chemicals) for 5 days, at 37 °C, 5% CO2. PKS21221 in DMSO, or DMSO only for control, was added to the culture media on day 5, and cells were incubated for additional 12, 24, and 48 h.

T cells = experiment: In vitro T-cell proliferation, anti-CD3/anti-CD28; type: cell-based, human; details: anti-CD3 and anti-CD28 stimulation
Source text: (§2) As we observed selective cytotoxicity of PKS21221 in activated B cells and ASCs compared to non-activated B cells, we asked whether this is the case in proliferating T cells. We activated human T cells to proliferate with anti-CD3 and anti-CD28 in the presence or absence of PKS21221 or bortezomib. […] To examine whether these inhibitors are cytotoxic preferentially to proliferating cells, we triggered T-cell proliferation with anti-CD3/anti-CD28 for 4 days (in the absence of inhibitors), treated the cells with PKS21221 for the next 24 h and determined cell survival with Annexin V and 7-AAD (Fig. 6c, d).
(§3) Fig. 6 Effect of PKS21221 and bortezomib (BTZ) on T-cell proliferation. T cells were isolated from human PBMC and stimulated with anti-CD3 (1 µg per ml) and anti-CD28 (1 µg per ml) for 4 days. […] Apoptosis c and viability d were assessed in proliferating and non-proliferating population of T cells. […]
(§4) T cells were isolated from human PBMCs using Human T-cell Isolation kit (StemCell Technologies, Cat#17951). […] Cells were counted and loaded with 5 μM CellTrace Violet (Thermo Fisher) in phosphate buffered saline (PBS) for 10 min at 37 °C, followed by wash in 10% fetal calf serum (FCS)-supplemented RPMI 1640 media. […] The viability and apoptosis were assessed using Annexin V Apoptosis Detection Kit (BD Biosciences). […]

[1] = tested on: resting CD3+ T cells and CD19+ B cells; experiment: Viability assay of human PBMC populations (Fixable Viability dye); type: cell-based; details: 10 nM bortezomib vs 1 μM PKS21221
Description: as §1
(1 picture or pasted object on this page, not shown here)

proliferating T cells = experiment: Apoptosis and viability of proliferating vs non-proliferating T cells; type: cell-based, human; details: 4 days anti-CD3/anti-CD28, then 24 h; PKS21221 1 µM, BTZ 10 nM
Source text: as §2, §3, §4

CC(C)C[C@H](NC(=O)[C@H](Cc1ccccc1)NC(=O)c1cnccn1)B(O)O [Bortezomib, bortezomib, reference compound]
ASC percentage in ASC differentiating culture (CD19+CD38+CD27+ ASCs): decreased the percentage of
proliferation of T cells (T cells): inhibited proliferation of T cells in a dose-dependent manner
cytotoxicity to resting CD3+ T cells and CD19+ B cells [1]: more cytotoxic at 10 nM than PKS2122 at 1 µM
apoptosis and cell death, proliferating vs non-proliferating T cells (proliferating T cells): induced apoptosis and cell death to a greater extent in proliferating T cells than in non-proliferating T cells
